For one compound, inhibition and Km results are on record in ChEMBL document CHEMBL1133992, “Hydrolase and sialyltransferase activities of trypanosoma cruzi trans-sialidase towards NeuAc-alpha-2,3-gal-Gal-beta-O-PNP” (Bioorg Med Chem Lett, 2001).

For one assay, the system named is Vibrio cholerae. Kind of assay: Inhibitory activity against Vibrio cholerae sialidase at mM concentration, Not significant.
Assay [1] has as its system Trypanosoma cruzi. Kind of assay: Km value for transferase activity of Trypanosoma cruzi trans-sialidase.
Assay [2] relates to Trypanosoma cruzi. Description: Km value for hydrolase activity of Trypanosoma cruzi trans-sialidase.

Activity calls are given as the source filed them. The calls are words filed in the database; no cut-off is given here.

As usually defined, the Km is the concentration of substrate that gives half-maximal velocity.

Consider `CCCCCCCCOC1OC(CO)C(O)C(SC2(C(=O)O)CC(O)C(NC(C)=O)C([C@H](O)[C@H](O)CO)O2)C1O` (stereo partly drawn), for which the inhibition entry in the assay on Vibrio cholerae is “inactive”. The Km in the assay on Trypanosoma cruzi [1] and with Trypanosoma cruzi [2] was over 5 mM in each case.
